Tests used:
circulating lymphocytes = test: Blood Lymphocyte Reduction (BLR) assay in rodent; type: in vivo; settings: Lewis rats dosed orally; for BL (×10^3/mm^3): n=2; for Lymp. Red.: vs vehicle group
Method: (§1) Blood Lymphocyte Reduction (BLR) Assay in Rodent:
Lewis rats were dosed orally with vehicle alone (polyethylene glycol 300, “PEG300”) or with test compounds. Compounds were dosed as a solution or suspension in the vehicle, adjusted to reflect the free amount of test article in the event that salt forms are utilized. […] The results were measured as a reduction in the percentage of circulating lymphocytes as compared to the vehicle treated group at the time of measurement. The results represent the average results of all animals within each treatment group (n=2).

[1] = Parent and phosphate concentrations in the BLR assay; settings: rat, in vivo, po, Lewis rats dosed orally
Method: as §1
Lewis rats were dosed orally with vehicle alone (polyethylene glycol 300, “PEG300”) or with test compounds. Compounds were dosed as a solution or suspension in the vehicle, adjusted to reflect the free amount of test article in the event that salt forms are utilized. Blood was drawn at 24 hr and blood lymphocyte counts were determined on an ADVIA 120 Hematology Analyzer (Siemens Healthcare Diagnostics). The results were measured as a reduction in the percentage of circulating lymphocytes as compared to the vehicle treated group at the time of measurement. The results represent the average results of all animals within each treatment group (n=2).

[2] = as above; settings: rat, in vivo, po, Lewis rats dosed orally; remark: listed apart in the source

Structure (SMILES) | BL (×10^3/mm^3) (circulating lymphocytes; 4 Hours) | Lymp. Red. (circulating lymphocytes; 4 Hours) | BL (×10^3/mm^3) (circulating lymphocytes; 24 Hours) | Lymp. Red. (circulating lymphocytes; 24 Hours) | concentration at 24 h [1] | concentration at 4 h [2]
CCCCN(C)c1nc2c(s1)-c1ccc([C@H]3CC[C@](N)(CO)C3)cc1CC2 [Example 18, ((1R,3S)-1-amino-3-(2-(butyl(methyl)amino)-4,5-dihydronaphtho[2,1-d]thiazol-7-yl)cyclopentyl)methanol] | 5.9 ×10^3/mm^3 | 30% | 6.4 ×10^3/mm^3 | 27% | 18 nM | 113 nM
CCCCNc1nc2c(s1)-c1ccc([C@H]3CC[C@](N)(CO)C3)cc1CC2 [Example 17, ((1R,3S)-1-amino-3-(2-(butylamino)-4,5-dihydronaphtho[2,1-d]thiazol-7-yl)cyclopentyl)methanol] | 5.8 ×10^3/mm^3 | 37% | 8.4 ×10^3/mm^3 | 0% | 0 nM | 33 nM
CCCCOc1nc2ccc3cc([C@H]4CC[C@](N)(CO)C4)ccc3c2s1 [Example 16, ((1R,3S)-1-amino-3-(2-butoxynaphtho[2,1-d]thiazol-7-yl)cyclopentyl)methanol] | 2.9 ×10^3/mm^3 | 65% | 1.9 ×10^3/mm^3 | 77% | 21 nM | 28 nM
CCCCCSc1nc2c(s1)-c1ccc([C@H]3CC[C@](N)(CO)C3)cc1CC2 [Example 11, ((1R,3S)-1-amino-3-(2-(pentylthio)-4,5-dihydronaphtho[2,1-d]thiazol-7-yl)cyclopentyl) methanol] | 2.3 ×10^3/mm^3 | 72% | 2.1 ×10^3/mm^3 | 76% | 16 nM | 87 nM
